Data published in patent publication US8372864B2, “1-oxo-isoindoline-4-carboxamide and 1-oxo-1,2,3,4-tetrahydroisoquinoline-5-carboxamide derivatives, preparation and therapeutic use thereof” (Sanofi, priority 2007, dated 2013).
Where a name gives a salt, the structure may show the parent alone.

target: T1, purified recombinant form of human BACE1 aspartyl protease (Homo sapiens, UniProt P56817); assay: in vitro inhibition of β-secretase (BACE1) activity, FRET cleavage of fluorogenic peptide substrate FS1; assay type: biochemical; conditions: purified enzyme 10 nM, substrate FS1 5 μM, sodium acetate buffer pH 4.5, 37° C., 45 minutes; read-out: IC50 (concentration of product giving 50% inhibition of the enzyme activity)
T1 construct: hexahistidine (C); made in house; host or cells: Drosophila cells
T1 sequence (P56817 46-501): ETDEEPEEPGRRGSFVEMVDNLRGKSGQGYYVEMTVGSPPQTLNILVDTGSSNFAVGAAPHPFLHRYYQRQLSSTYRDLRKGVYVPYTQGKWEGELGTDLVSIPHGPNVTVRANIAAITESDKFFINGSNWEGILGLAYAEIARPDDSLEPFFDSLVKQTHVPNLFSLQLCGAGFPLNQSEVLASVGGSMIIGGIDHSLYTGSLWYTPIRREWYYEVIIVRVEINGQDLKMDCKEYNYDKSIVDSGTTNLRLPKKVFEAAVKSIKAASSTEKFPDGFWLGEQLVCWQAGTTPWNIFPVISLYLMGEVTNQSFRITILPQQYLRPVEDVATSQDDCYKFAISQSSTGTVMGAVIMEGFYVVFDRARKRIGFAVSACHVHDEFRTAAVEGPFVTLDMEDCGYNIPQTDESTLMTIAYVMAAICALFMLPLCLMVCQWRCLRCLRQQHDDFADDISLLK
Procedure: The tests consisted in measuring the in vitro inhibition of the β-secretase activity by the compounds of the invention.
The β-secretase activity measured corresponds to that of a purified recombinant form of human BACE1 aspartyl protease (the latter comprising a hexahistidine tag at the C-terminal position) produced by expression in Drosophila cells. The purified enzyme is conditioned in TRIS buffer (18 mM) at pH 7.5 containing NaCl (0.45M), MnCl2 (0.9 mM), CaCl2 (0.9 mM), α-D-methylmannoside and 10% glycerol, and stored at −80° C. until use.
The BACE1 activity is measured from the cleavage of a fluorogenic peptide substrate, known as FS1, described originally by Ermolieff et Coll. (2000, Biochemistry, 39, 12450-12456), and based on the principle of fluorescence resonance energy transfer (FRET); the cleavage of the FS1 peptide is measured from the increase of the fluorescent signal emitted by the EDANS (or 5-[(2-aminoethyl)amino]naphthalene-[…]) group. The test is carried out in a 96-well microplate in order to determine the inhibition of the enzyme activity by the products of the invention. The substrate FS1 is solubilized to a concentration of 1 mM in 100% dimethylsulfoxide (DMSO) and stored at −20° C. until use. The dilutions of the products to be tested are prepared in DMSO starting from a 10 mM stock solution. The products of the invention, at final concentrations of 0.003 to 10 μM are incubated at 37° C. with the substrate FS1 (final concentration of 5 μM) and the purified enzyme (final concentration of 10 nM) in the sodium acetate buffer (0.1M), pH 4.5 containing 0.02% of CHAPS detergent and 200 mM NaCl for 45 minutes. […] When the incubation is finished, the fluorescence is measured in a spectrofluorimeter, at the excitation wavelength of 355 nm and emission wavelength of 509 nm. For each product concentration tested, the fluorescent signal is compared to the maximum signal obtained when the substrate FS1 is only incubated with the enzyme.
The inhibitory activity of the products of the invention is then evaluated by the measurement of the IC50 (concentration of product giving 50% inhibition of the enzyme activity) using a non-linear regression analysis (computer application software XLfit, IDBS™).

Compound | IC50
CCCC(CCC)N1Cc2c(C(=O)N[C@@H](Cc3ccccc3)[C@H](O)CNCc3cccc(C(F)(F)F)c3)cccc2C1=O [Compound 1, N-[(1S,2R)-1-benzyl-2-hydroxy-3-{[3-(trifluoromethyl)benzyl]amino}propyl]-1-oxo-2-(1-propylbutyl)isoindoline-4-carboxamide hydrochloride (1:1)] | 770 nM
CCCC(CCC)N1CCc2c(C(=O)N[C@@H](Cc3cc(F)cc(F)c3)[C@H](O)CNC3(c4cccc(C(F)(F)F)c4)CC3)cc(N(C)S(C)(=O)=O)cc2C1=O [Compound 9, N-[(1S,2R)-1-(3,5-difluorobenzyl)-2-hydroxy-3-({1-[3-(trifluoromethyl)phenyl]cyclopropyl}amino)propyl]-7-[methyl(methylsulfonyl)amino]-1-oxo-2-(1-propylbutyl)-1,2,3,4-tetrahydroisoquinoline-5-carboxamide hydrochloride (1:1)] | 48 nM
CCCC(CCC)N1CCc2c(C(=O)N[C@@H](Cc3cc(F)cc(F)c3)[C@H](O)CNC3(c4cccc(C(F)(F)F)c4)CC3)cc(-c3cccc(C#N)c3)cc2C1=O [Compound 16, N-[(1S,2R)-1-(3,5-difluorobenzyl)-2-hydroxy-3-({1-[3-(trifluoromethyl)phenyl]cyclopropyl}amino)propyl]-7-(3-cyanophenyl)-1-oxo-2-(1-propylbutyl)-1,2,3,4-tetrahydroisoquinoline-5-carboxamide hydrochloride (1:1)] | 390 nM
CCCC(CCC)N1CCc2c(C(=O)N[C@@H](Cc3cc(F)cc(F)c3)[C@H](O)CNC3(c4cccc(C(F)(F)F)c4)CC3)cc(-c3ccccc3C#N)cc2C1=O [Compound 17, N-[(1S,2R)-1-(3,5-difluorobenzyl)-2-hydroxy-3-({1-[3-(trifluoromethyl)phenyl]cyclopropyl}amino)propyl]-7-(2-cyanophenyl)-1-oxo-2-(1-propylbutyl)-1,2,3,4-tetrahydroisoquinoline-5-carboxamide hydrochloride (1:1)] | 630 nM

tested on: not given; assay: not given; conditions: not given

Compound | melting point
CC(c1ccc(F)cc1)N1CCc2c(C(=O)N[C@@H](Cc3cc(F)cc(F)c3)[C@H](O)CNC3(c4cccc(C(F)(F)F)c4)CC3)cccc2C1=O.Cl (some centres unmarked) | 157 °C
CCCC(CCC)N1Cc2c(C(=O)N[C@@H](Cc3cc(F)cc(F)c3)[C@H](O)CNC3(c4cccc(C(F)(F)F)c4)CC3)cc(N(C)S(C)(=O)=O)cc2C1=O.Cl | 194 °C
CCCC(CCC)N1CCc2c(C(=O)N[C@@H](Cc3cc(F)cc(F)c3)[C@H](O)CNC3(c4cccc(C(F)(F)F)c4)CC3)cc(C(F)(F)F)cc2C1=O.Cl | 196 °C
CCCC(CCC)N1CCc2c(C(=O)N[C@@H](Cc3ccccc3)[C@H](O)CNC3(c4cccc(C(F)(F)F)c4)CC3)cccc2C1=O.Cl | 174 °C
CCCC(CCC)N1CCc2c(C(=O)N[C@@H](Cc3cc(F)cc(F)c3)[C@H](O)CNC3(c4cccc(C(F)(F)F)c4)CC3)cccc2C1=O.Cl | 172 °C
Cl.O=C(N[C@@H](Cc1cc(F)cc(F)c1)[C@H](O)CNC1(c2cccc(C(F)(F)F)c2)CC1)c1cccc2c1CCN(Cc1ccccc1)C2=O | 178 °C
CCCCCN1CCc2c(C(=O)N[C@@H](Cc3cc(F)cc(F)c3)[C@H](O)CNC3(c4cccc(C(F)(F)F)c4)CC3)cccc2C1=O.Cl | 165 °C
